This is an account of results in article PMC12113540, “Isolation and Characterization of L-Asparaginase-Producing Bacteria from the Arabian–Persian Gulf Region: First Report on Bacillus xiamenensis ASP-J1-4 as a Producer and Its Potential Application” (Marine Drugs, 2025).

This assay deals with T1, ASP-J1-4 L-ASNase.
T1 construct: gene ansZ; native enzyme from culture broth, acetone precipitation, dialysis, DEAE-Sepharose; 36 kDa (37 kDa in abstract) by SDS-PAGE; no L-glutaminase activity
The assay is described as follows: ammonia release, Nessler's reagent, A436; Lineweaver-Burk plot. The assay is classed as biochemical, Bacillus xiamenensis. The settings on record: 0.02-2.42 mM L-ASN; regular assay conditions (pH and temperature not restated for kinetics).

For `NC(=O)C[C@H](N)C(=O)O` [L-ASN], the Km (usually the substrate concentration at which the rate is half of its maximum) worked out at 150 µM.
